For assay [1], the system named is differentiated keratinocytes. The assay can be described thus: Microarray gene expression in differentiated primary human epidermal keratinocytes dosed with piroctone olamine. The class given is cell-based. To be noted: 7.5 µM, 24 hours. Here is the method:
Primary human epidermal keratinocytes were obtained from Lonza. Cells were cultured in monolayer in KGM-Gold medium. For the experiment keratinocytes were differentiated by incubating for five days in KGM-Gold medium supplemented with 1.2 mM calcium chloride. Piroctone olamine was supplied by Sigma. Differentiated keratinocyte cultures were dosed with 7.5 µM piroctone olamine and 0.1% ethanol (Group 1, n=4), or with 0.1% ethanol only (Group 2, n=4) and incubated for 24 hours. Cells were then lysed in RLT buffer and subjected to RNA extraction using Qiagen RNeasy Micro Kit according to manufacturer’s instructions. The levels of gene expression were determined using Agilent SurePrint G3 Human Gene Expression 8x60k v3 Microarrays in conjunction with Agilent SureHyb hybridisation and SureScan High-Resolution scanning technology, in accordance with manufacturer’s protocol. Microarray data processing and statistical analysis was carried out in Agilent GeneSpring GX14 software. To identify differentially expressed genes in piroctone olamine treated cultures (Group 1) compared to vehicle control cultures (Group 2), t-test was applied (p≤0.05) with or without Benjamini-Hochberg false discovery rate correction (FDR≤0.05).

The test system of assay [2] is ex vivo human skin explants. Description: RNA sequencing gene expression in NativeSkin ex vivo human skin explants treated topically with piroctone olamine. To be noted: 24 hours. The class given is cell-based. Here is the method: Human ex vivo skin model production and piroctone olamine treatment were conducted by Genoskin (France). NativeSkin models of 15 mm diameter ex vivo human skin explants with silicon rings were produced from three donors and cultured in NativeSkin culture medium under 5% CO2 humidified atmosphere in 37° C. Skin explants were treated topically with 50 ul of solution containing 30 uM piroctone olamine in PBS with 1% ethanol (Group 1, n=3), or control PBS solution containing 1% ethanol (Group 2, n=3), and were incubated for 24 hours. Following one day of topical treatment, piroctone olamine and control solutions were removed using cotton swabs and each model was unmolded from silicon ring and re-punch at 12 mm diameter. Half of each skin biopsy was processed for RNA using OMNI-TH Rotor Stator tissue homogeniser and Qiagen RNeasy Fibrous Tissue RNA Mini Kit according to manufacturer’s instructions. RNA sequencing was used for gene expression analysis. Lexogen QuantSeq3′ FWD libraries were prepared from RNA samples and sequenced via single read (1x75 bp) performed using NextSeq 500/550 Mid-Output Kit on the NextSeq 500 Illumina platform. FASTQ data files were then uploaded to the BlueBee genomic platform and read-trimming, alignment, and read count were performed using QuantSeq data processing pipeline. Differential gene expression analysis for Group 1/Group 2 comparison was run in Bluebee genomic platform using QuantSeq DE pipeline (FDR corrected p≤0.05).

The mark [3] stands for this setting: vs 0.1% ethanol control, Comeodesmosome formation.
[4] abbreviates: vs 0.1% ethanol control, Cornified envelop formation.
[5] abbreviates: vs 0.1% ethanol control, Tight junction formation.
Where [6] appears, read: 30 uM topical in PBS with 1% ethanol, vs control, Tight junction formation.

This note sets out measurements from patent US20230114143A1, “METHOD OF TREATING THE SCALP” (Conopco, Inc., d/b/a UNILEVER, priority 2020, published 2023).

Structures can show the parent of a compound that is named as a salt.

On to `Cc1cc(CC(C)CC(C)(C)C)n(O)c(=O)c1` (stereo not shown) [piroctone olamine, 1-hydroxy-4-methyl-6-(2,4,4-trimethylpentyl)-2(1H) pyridinone monoethanolamine salt], for which the “gene expression of epidermal barrier biomarkers compared to control (in words)” value in assay [1] (differentiated keratinocytes) is listed as “clear increase in gene expression”. In assay [1] (setting [3]), the “Fold Change (Group ⅟Group 2) gene expression, Desmocolin 2 (DSC2)” value is 2.49; the “Fold Change (Group ⅟Group 2) gene expression, Desmoglein 4 (DSG4)” value came to 2.44; the “Fold Change (Group ⅟Group 2) gene expression, Plakophilin 1 (PKP1)” value came out at 1.75. The “Fold Change (Group ⅟Group 2) gene expression, Comeodesmosin (CDSN)” value in assay [1] (vs 0.1% ethanol control, Comeodesmosome formation, not significant) was found to be 1.20. In assay [1] (setting [4]), the “Fold Change (Group ⅟Group 2) gene expression, Involucrin (IVL)” value turned out to be 1.40; the “Fold Change (Group ⅟Group 2) gene expression, Late cornified envelope 3A (LCE3A)” value is reported as 2.58; the “Fold Change (Group ⅟Group 2) gene expression, Late cornified envelope 3B (LCE3B)” value is 1.67; the “Fold Change (Group ⅟Group 2) gene expression, Late cornified envelope 3C (LCE3C)” value was 2.71. Besides, the “Fold Change (Group ⅟Group 2) gene expression, Small proline-rich protein 2D (SPRR2D)” value in assay [1] (setting [4]) is 1.52. For the same compound, in assay [1] (setting [5]), the “Fold Change (Group ⅟Group 2) gene expression, Claudin 4 (CLDN4)” value came to 1.76; the “Fold Change (Group ⅟Group 2) gene expression, Claudin 7 (CLDN7)” value came to 1.65; the “Fold Change (Group ⅟Group 2) gene expression, Claudin 17 (CLDN17)” value is listed as 2.99; the “Fold Change (Group ⅟Group 2) gene expression, Claudin 25 (CLDN25)” value was 2.05. The “Fold Change (Group ⅟Group 2) gene expression, Zona Occludens 1 (ZO1 (TJP1))” value in assay [1] (vs 0.1% ethanol control, Tight junction formation, not significant) is given as 1.3. The “Fold Change (Group 1/Group 2) gene expression, Involucrin (IVL)” value in assay [2] (30 uM topical in PBS with 1% ethanol, vs control, Cornified envelop formation) came out at 2.7. Moreover, in assay [2] (setting [6]), the “Fold Change (Group 1/Group 2) gene expression, Claudin 1 (CLDN 1)” value was found to be 2.1 and the “Fold Change (Group 1/Group 2) gene expression, Zona Occludens 2 (ZO2 (TJP2))” value is 3.5. Moreover, the “gene expression of epidermal barrier biomarkers compared to control (in words)” value in assay [2] (30 uM topical, human skin explants) was “increase in gene expression”.
